Assay results reported in US11215617B2, “Treatment of metastatic prostate cancer” (The Regents of the University of California, priority 2013, dated 2022).
Where a SMILES comes first, the peptide text is derived from it. The star is where a group is joined. Cbz = O=C(OCc1ccccc1)*

Columns and labels:
LNCaP-s17 cells = assay: Cell growth assay; assay type: cell-based, human; settings: 10 μM AG490 with 20 μM enzalutamide, 48 h
Protocol: Total cell numbers were counted and the cell survival rate (%) was calculated. Cell survival rate (%)=(Treatment group cell number/Control group cell number)×100%. […] Total cell numbers were counted after 2, 4, and 7 days. […] The cells were treated as indicated and total cell numbers were counted.

AR-V7 = target: T1, AR-V7 (Homo sapiens, UniProt P10275); assay: AR-V7 protein degradation after cycloheximide block in CWR22rv1 cells; assay type: cell-based; settings: MG132 5 μM, cycloheximide 50 μg/mL, 2 μM niclosamide, 8 h
T1 construct: CWR22rv1 cells, which express high endogenous AR-V7; endogenous in cells; host or cells: CWR22rv1
Protocol: At specified time points, cells were harvested, and the levels of AR-V7 protein were measured by Western blot using antibodies specific against AR-V7. […] The cell lysates were prepared at 8 h. AR-V7 protein levels were determined by Western blot analysis using antibodies specifically against AR-V7 and tubulin as a control.
At specified time points, cells were harvested, and the levels of AR-V7 protein were measured by Western blot using antibodies specific against AR-V7.

T1 sequence (P10275 1-644 isoform P10275-3): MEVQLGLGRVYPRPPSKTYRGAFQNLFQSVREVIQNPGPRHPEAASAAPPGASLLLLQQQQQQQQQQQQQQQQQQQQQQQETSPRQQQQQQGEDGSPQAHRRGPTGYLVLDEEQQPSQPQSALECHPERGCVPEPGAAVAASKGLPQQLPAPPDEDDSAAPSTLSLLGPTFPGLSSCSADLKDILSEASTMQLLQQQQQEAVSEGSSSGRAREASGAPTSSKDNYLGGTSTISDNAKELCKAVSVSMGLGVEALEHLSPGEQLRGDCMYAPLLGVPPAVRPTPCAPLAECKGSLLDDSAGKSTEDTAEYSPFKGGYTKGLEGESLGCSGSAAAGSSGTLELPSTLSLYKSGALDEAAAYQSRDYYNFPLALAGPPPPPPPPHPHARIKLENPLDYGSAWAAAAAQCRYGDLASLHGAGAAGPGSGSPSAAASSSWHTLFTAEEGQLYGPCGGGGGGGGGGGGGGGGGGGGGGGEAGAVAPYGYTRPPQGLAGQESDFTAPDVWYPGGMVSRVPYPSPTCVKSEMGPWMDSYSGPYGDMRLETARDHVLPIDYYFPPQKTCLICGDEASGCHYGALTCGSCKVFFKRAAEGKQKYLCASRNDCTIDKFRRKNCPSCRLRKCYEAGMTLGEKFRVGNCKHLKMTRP

N#C/C(=C/c1ccc(O)c(O)c1)C(=O)NCc1ccccc1 [AG490]
reversal of enzalutamide resistance (LNCaP-s17 cells): reverse enzalutamide resistance

CC(C)C[C@@H](C=O)NC(=O)[C@H](CC(C)C)NC(=O)[C@H](CC(C)C)NC(=O)OCc1ccccc1 [MG132] (Cbz-Leu-Leu-Leu-aldehyde)
niclosamide effect on AR-V7 protein levels in presence of MG132 (AR-V7): able to retard the niclosamide effect on AR-V7 protein levels
